From patent US10344065B2, “Method for treating Alzheimer's disease and method for downregulating protein aggregation in brain” (National Cheng Kung University, priority 2017, dated 2019) come the findings set out here.

Assay [1] concerns melanoma B16F10 cells. As to the kind of experiment: B16F10 metastasis to the lung in nude mice. It is filed as in vivo, mouse. As for the experimental part: (§1) FIG. 4 includes photos showing that Zfra suppresses melanoma B16F10-mediated neurodegeneration in the hippocampus. Nude mice were preinjected with 100 μL, of sterile Milli-Q water or Zfra4-10 (1 mM in sterile water) in 3 consecutive weeks. After treatment for a week, these mice were inoculated with melanoma B16F10 cells on both flanks (2×10^5 cells in 100-μL, PBS). Mice were sacrificed when the tumor sizes grew up to 2000-3000 mm^3 in about a month. (A) Zfra blocked neurodegeneration in the hippocampus (top panel) and prevented the formation of TPC6AΔ plaques in the cortex (bottom panel), which negatively correlates with pS14-WWOX expression. Note the presence of condensed apoptotic nuclei in the hippocampal neurons in the control mice, (B) Metastasis of B16F10 cells to the lung was blocked in Zfra-treated mice. Compared to controls, Zfra suppressed p-S14WWOX expression in the lung by ˜72% suppression (three sections). […] (C and D) The non-spatial learning and memory were determined by novel object recognition task for both 3×Tg and Wwox+/− mice. […]
(§2) Six- to eight-week-old male nude (BALB/cAnN.Cg-Foxn1^nu/CrlNarl) mice (National Laboratory Animal Center, Taiwan) were used. […] Tumor volumes were measured daily and calculated using the equation, D×(d)^2/2, where D and d are the major and minor diameters, respectively. […] Z-cell distribution in organs was determined under fluorescence microscopy.

The subject of assay [2] is TPC6AΔ peptides. As to the kind of experiment: Aggregation of serine-containing TPC6AΔ peptides in PBS. Format: biochemical. The conditions noted are these: 24 hours, room temperature. The method, then: (§3) FIG. 5 includes photos and diagrams showing that Zfra suppresses polymerization or aggregation of serine-containing TPC6AΔ and other peptides in PBS. Zfra4-10 was incubated with an indicated serine-containing peptide in PBS at room temperature for 24 hours (final 200 μM each peptide). The mixtures were subjected to nonreducing sodium dodecyl sulfate polyacrylamide gel electrophoresis (SDS-PAGE). (A) Full-length Zfra or red-fluorescent TMR-Zfra blocked aggregation of Aβ42 (lanes 3, 5, and 7). […] The membrane was stained with antibody against Aβ. (B) Zfra4-10 and one of the TPC6AΔ peptides were resuspended in Milli-Q water or PBS and incubated for 24 hours at room temperature. Zfra4-10 suppressed the polymerization of serine-containing peptides. Reduction in intensity=[1−(Z.P)/(Z+P)]×100%, where Z=Zfra4-10, P=an indicated peptide, and Z.P=peptide mixture. […] Zfra4-10 suppressed polymerization of these peptides in PBS.
Zfra and serine-containing peptides were synthesized by Genemed Synthesis (San Antonio, Tex., USA), (1) Zfra1-31, […] (SEQ ID NO: 2); (2) Zfra4-10, RRSSSCK (SEQ ID NO: 1); (3) WWOX7-21, AGLDDTDSEDELPPG (SEQ ID NO: 3); (4) pS14-WWOX7-21, AGLDDTDpSEDELPPG (SEQ ID NO: 4); (5). […]

Assay [3] concerns WWOX. As to the kind of experiment: WWOX phosphorylation in melanoma-bearing nude mice. Format: in vivo, mouse. Conditions: B16F10-bearing nude mice, n=3. The method, then: FIG. 4 includes photos showing that Zfra suppresses melanoma B16F10-mediated neurodegeneration in the hippocampus. Nude mice were preinjected with 100 μL, of sterile Milli-Q water or Zfra4-10 (1 mM in sterile water) in 3 consecutive weeks. After treatment for a week, these mice were inoculated with melanoma B16F10 cells on both flanks (2×10^5 cells in 100-μL, PBS). Mice were sacrificed when the tumor sizes grew up to 2000-3000 mm^3 in about a month. (A) Zfra blocked neurodegeneration in the hippocampus (top panel) and prevented the formation of TPC6AΔ plaques in the cortex (bottom panel), which negatively correlates with pS14-WWOX expression. Note the presence of condensed apoptotic nuclei in the hippocampal neurons in the control mice, (B) Metastasis of B16F10 cells to the lung was blocked in Zfra-treated mice. Compared to controls, Zfra suppressed p-S14WWOX expression in the lung by ˜72% suppression (three sections). […] (C and D) The non-spatial learning and memory were determined by novel object recognition task for both 3×Tg and Wwox+/− mice. […] Also, see data in FIG. 1.
Six- to eight-week-old male nude (BALB/cAnN.Cg-Foxn1^nu/CrlNarl) mice (National Laboratory Animal Center, Taiwan) were used. Mice were intravenously injected into tail veins with 100 μL of Zfra1-31 or Zfra4-10 (2 mM), or sterile water. After injection for 1-8 weeks, mouse melanoma B16F10 or human glioma 13-06-MG cells (2-2.5×10^6 cells/100-μL saline) were then inoculated in subcutaneous sites at both flanks. Tumor volumes were measured daily and calculated using the equation, D×(d)^2/2, where D and d are the major and minor diameters, respectively. At indicated time point, mouse organs, including brain, lung, spleen, and liver, were harvested and fixed with 4% paraformaldehyde. IHC was carried out using indicated specific antibodies to determine protein expression in tissues and organs. Where indicated, TMR-Zfra was used to stain spleen, brain, and lung tissues. Z-cell distribution in organs was determined under fluorescence microscopy.

For assay [4], the system named is WWOX7-21, WWOX286-299, and ANKRD40266-281 peptides. As to the kind of experiment: Polymerization of serine-containing WWOX and ANKRD40 peptides in PBS. Format: biochemical. As for the experimental part:
as §3
(§4) Zfra and serine-containing peptides were synthesized by Genemed Synthesis (San Antonio, Tex., USA), (1) Zfra1-31, […] (SEQ ID NO: 2); (2) Zfra4-10, RRSSSCK (SEQ ID NO: 1); (3) WWOX7-21, AGLDDTDSEDELPPG (SEQ ID NO: 3); (4) pS14-WWOX7-21, AGLDDTDpSEDELPPG (SEQ ID NO: 4); (5). WWOX286-299, DYWAMLAYNRSKLC (SEQ ID NO: 5); (6) pY287-WWOX286-299, DpYWAMLAYNRSKLC (SEQ ID NO: 6); (7) TPC6A24-38, DPGPGGQKMSLSVLE (SEQ ID NO: 7); (8) pS35-TPC6A24-38, DPGPGGQKMSLpSVLE (SEQ ID NO: 8); (9) TPC6A84-100, KDLWVAVFQKQMDSLR (SEQ ID NO: 9); (10) ANKRD40266-281, RIQNPSLRENDFIEIE (SEQ ID NO: 10); (11) pS271-ANKRD40266-281, RIQNPpSLRENDFIEIE (SEQ ID NO: 11); (12) tetramethylrhodamine-labeled Zfra (TMR-Zfra), the full-length Zfra1-31 was labeled with a red-fluorescent […] fluorescent probe tetramethylrhodamine. The peptide stocks were made as 10 mM in degassed sterile Milli-Q water. Each tube was flushed with nitrogen and stored in −80° C. freezer. For tail vein injections, peptides were freshly prepared in degassed Milli-Q water at 1-4 mM in 100-μL Milli-Q. GenBank accession for ANKRD40 is EU164539. Aβ peptides were from AnaSpec, (1) Aβ42: […] (SEQ ID NO: 12); (2) Aβ40: […] […]

The target of assay [5] is T1, WWOX7-21, WWOX286-299, and ANKRD40266-281 peptides (Homo sapiens, UniProt Q9NZC7).
T1 construct: purchased Genemed Synthesis
The assay is described as above. It is filed as biochemical. As for the experimental part:
as §3, §4

The test system of assay [6] is pyramidal neurons in the hippocampi. As to the kind of experiment: Melanoma B16F10-induced neurodegeneration in nude mice. Format: in vivo, mouse. Conditions: hippocampi of nude mice pretreated 3 consecutive weeks via tail veins, then B16F10 inoculated. As for the experimental part: as §1, §2

Consider “RRSSSCK [Zfra4-10, truncated zinc finger-like peptide, amino acids 4-10 of Zfra]”, for which, in assay [1], the “B16F10 metastasis to the lung” value is recorded as “blocked”. In assay [2], the “aggregation of TPC6AΔ peptides (TPC6AΔ24-38, pS35-TPC6AΔ24-38, TPC6AΔ84-100)” value is listed as “effectively blocked”. In assay [3] (brain (hippocampus)), the “suppression of Ser14 phosphorylation of WWOX (pS14-WWOX)” value is recorded as 87±5%. The “suppression of Tyr33 phosphorylation in WWOX” value in assay [3] (brain) was found to be 2±6%. In addition, the “suppression of phosphorylation in Tyr33 in WWOX in the lung” value in assay [3] (lung) is reported as 5±3%. Further, in assay [4], the “polymerization of phosphorylated WWOX7-21 and ANKRD40266-281” value is recorded as “had apparent effects”; the “polymerization or aggregation of non-phosphorylated WWOX7-21, WWOX286-299, ANKRD40266-281” value is reported as “effectively blocked”. Also, the “aggregation of pY287-WWOX286-299” value in assay [5] is on record as “did not effectively block”. The apoptotic nuclei in assay [6] amounted to 0±1%.
